# According to US20220249637A1, “COMBINATION THERAPY OF A CELL-MEDIATED CYTOTOXIC THERAPY AND AN INHIBITOR OF A PROSURVIVAL BCL2 FAMILY PROTEIN” (Juno Therapeutics, Inc., priority 2019, published 2022):
# Tests used:
# [1] = tested on: JeKo-1 mantle cell lymphoma cells; assay: JeKo-1 murine model of mantle cell lymphoma; format: in vivo, NOD scid gamma (NSG) mice
# Protocol: NOD scid gamma (NSG) mice were injected intravenously with 2×10^6 JeKo-1 mantle cell lymphoma cells (Day −7) and treated daily with 12.5, 25, 50, or 100 mg/kg of the exemplary BCL2 inhibitor venetoclax for 21 days (Day 0 through Day 21). Tumor burden (FIG. 11A) and body weight (FIG. 11B) were assessed over the course of treatment.
# To determine the effects of venetoclax on anti-CD19 CAR T cells in a venetoclax-resistant murine model of MCL, NSG mice were injected intravenously with 2×10^6 JeKo-1 cells on Day −7, and then treated with intravenous infusions of 1×10^6 anti-CD19 CAR T cells, generated substantially as described in previous Example, on Day −1 and Day 0. Venetoclax was administered daily for 21 days (Day 0 to Day 21) at 6.25, 25, or 100 mg/kg. As a control, a subset of mice were only treated with venetoclax. Tumor burden (FIG. 12A), survival (FIGS. 12B and 12C), and CAR T cell number (FIG. 13) were assessed.
# WSU-DLCL2 = assay: NucLight Red target cell killing by live cell imaging; format: cell-based
# Protocol: (§1) The cytolytic activity of anti-CD19 CAR T cells against two additional CD19-expressing lymphoma target cells lines, SUDHL6 and WSU-DLCL2, was assessed and compared to cytolytic activity against K562.CD19 target cells. Target cells were engineered with a lentiviral reagent to express NucLight Red (NLR) to permit tracking of target cells by microscopy. Anti-CD19 CAR-expressing T cell compositions were generated from two human adult donors, substantially as described above. Target cells were co-cultured with the donor-derived CAR T cell compositions for up to 120 hours at an E:T ratio of 2.5:1. Red target cell counts were tracked over time by live cell imaging and counts were normalized to the number of red target cells at baseline to determine the fold-change in target cells over time.
# (§2) Anti-CD19 CAR-expressing T cell compositions were generated as described in Example 1 and were cultured with a CD19-expressing lymphoma target cell lines, either SUDHL6, WSU-DLCL2, or Granta-519 at an E:T ratio of 2.5:1. The co-cultures were carried out in the presence of 20 nM or 200 nM of the exemplary BCL2 inhibitor, venetoclax. As controls, target tumor cell lines were incubated only in the presence of the inhibitor or the anti-CD19 CAR T cells. Target cells were labeled with NucLight Red (NLR) to permit tracking of target cells by microscopy and target cell killing was monitored by the loss of fluorescent signal over time, substantially as described in Example 1.
# SUDHL6 = assay: as above; format: cell-based; settings: venetoclax alone, 200 nM
# Protocol: as §1, §2
# CD3+ CAR T cells = assay: Delayed addition of venetoclax to RL / CAR T co-culture, CAR T cell number; format: cell-based; settings: 6 days
# Protocol: RL target cells were co-cultured with CD19-targeting CAR T cells, generated substantially as described in Example 1, for 6 days in the absence or presence of the exemplary BCL2 inhibitor venetoclax (0.01 μM, 0.1 μM, or 1.0 μM). Venetoclax was added concurrently with co-culture or 24, 48, or 72 hours after the start of co-culture. As a control, RL target cells were cultured in the presence of venetoclax, but without CAR T cells.
# After 6 days of co-culture, the number of CD3+ CAR T cells and target cells was assessed.
# JeKo-1 target cells = assay: JeKo-1 target cell co-culture for 100 hours; format: cell-based
# Protocol: Further, the cytolytic activity of anti-CD19 CAR T cells was not affected when co-cultured with JeKo-1 target cells for 100 hours in the presence of 1.0 μM venetoclax.
# [2] = tested on: cancer cells resistant to CAR T cell-mediated killing; assay: T cell-mediated killing of cancer cells by CAR T cells in presence of BCL2 inhibitor; format: cell-based; settings: cancers resistant to T cell therapy alone, low doses without activity on tumor alone
# RL spheroids = RL spheroids co-cultured with chronically stimulated anti-CD19 CAR T cells; format: cell-based; settings: 8 days
# Protocol: Anti-CD19 CAR-expressing T cells, generated from healthy donors as described above, were chronically stimulated under conditions to exhaust T cell activity by incubation for 8 days with beads coated in anti-idiotypic (anti-ID) antibody directed against the CAR. After the 8 days of chronic stimulation, the anti-CD19 CAR-expressing T cells were harvested and subsequently co-cultured with RL cells engineered to express NLR for 8 days at an E:T ratio of 1:1. As a control, RL cells were cultured in the absence of anti-CD19 CAR T cells. Subtherapeutic concentrations of the exemplary BCL2 inhibitor venetoclax (0.01 μM or 0.1 μM) were added to the cultures, and the number of cells was assessed over time (FIG. 6A).
# In another experiment, spheroids were generated from CD19-expressing RL cells as previously described, and co-cultured for 8 days with anti-CD19 CAR T cells at an E:T ratio of 1:1 and increasing concentrations of venetoclax (0.01 μM, 0.1 μM, or 1.0 μM), or with only corresponding concentrations of venetoclax. As before, the anti-CD19 CAR T cells were chronically stimulated with anti-ID antibody-coated beads prior to co-culture with the RL spheroids. […] Overall, the size of the RL spheroids cultured with both anti-CD19 CAR T cells and venetoclax decreased more, and with lower concentrations of venetoclax, compared to that of RL spheroids cultured with just venetoclax.
# CD3+CAR+ T cells = assay: Co-culture of tumor cells and CAR T cells, venetoclax added at initiation or 24, 48 or 72 hours later (Example 9): CAR T cell number; format: cell-based
# Protocol: FIGS. 14A and 14B show the number of CD3+CAR+ T cells and RL target cells, respectively, following a 6-day co-culture. Various concentrations of an exemplary BCL2 inhibitor were provided in the co-culture at its initiation, or 24, 48, or 72 hours after the initiation of co-culture.
# Thus, in some cases, the cytotoic effects of a BCL2 inhibitor, e.g. venetoclax, and a T cell therapy (e.g. CAR T cells) may be synergistic to result in cell death of cells otherwise resistant to treatment with the T cell therapy alone. In some cases, administration of the inhibitor, e.g. venetoclax, may sensitize otherwise resistant cancer cells to CAR T cell-mediated killing when it is administered within or at about 7 days after administration of the cell therapy.
smiles,measurement,setting,value
CC1(C)CCC(CN2CCN(c3ccc(C(=O)NS(=O)(=O)c4ccc(NCC5CCOCC5)c([N+](=O)[O-])c4)c(Oc4cnc5[nH]ccc5c4)c3)CC2)=C(c2ccc(Cl)cc2)C1 [venetoclax],tumor volume,"[1]; venetoclax 6.25, 25 or 100 mg/kg daily in combination with CAR T cells, vs untreated and venetoclax-only mice",reduced tumor volume at all measured time points
same,tumor burden,"[1]; venetoclax alone, 6.25, 25 or 100 mg/kg daily for 21 days",increased similarly in untreated mice and mice treated with venetoclax alone
same,tumor burden (bioluminescence imaging),"[1]; venetoclax alone, 12.5, 25, 50 or 100 mg/kg daily for 21 days","resistant to treatment with venetoclax alone, regardless of dose level"
same,CD19-directed CAR T cell killing,"WSU-DLCL2; co-culture with anti-CD19 CAR T cells E:T 2.5:1, 20 or 200 nM venetoclax",enhanced
same,tumor cell killing,"WSU-DLCL2; venetoclax alone, 20 nM or 200 nM",did not substantially impact tumor cell killing
same,tumor cell killing,SUDHL6,killing of the sensitive tumor cell line SUDHL6 was achieved
same,number of CD3+ CAR T cells,"CD3+ CAR T cells; 0.01 μM, all time points",not observed to reduce CD3+ CAR T cell number
same,number of CD3+ CAR T cells,CD3+ CAR T cells; 0.1 μM or 1.0 μM added concurrently or 24 hours later,reduced
same,number of CD3+ CAR T cells,"CD3+ CAR T cells; added 48 or 72 hours following co-culture, any concentration",a reduction in CD3+ CAR T cells was not observed
same,cytolytic activity of anti-CD19 CAR T cells,"JeKo-1 target cells; 1.0 μM venetoclax, 100 hours",not affected
same,number of JeKo-1 target cells,JeKo-1 target cells; venetoclax alone,not reduced
same,T cell-mediated killing of cancer cells by a T cell therapy (CAR T cells),[2],improves T cell-mediated killing of cancer cells
same,tumor size,"RL spheroids; venetoclax 0.01, 0.1 or 1.0 μM in the absence of CAR T cells",decreases in tumor size were only observed with 1 μM venetoclax
same,tumor size,"RL spheroids; with chronically stimulated CAR T cells E:T 1:1, venetoclax 0.01, 0.1 or 1.0 μM",greater decreases in tumor size were seen with increasing concentrations of venetoclax
same,deleterious effects on CAR T cells,"CD3+CAR+ T cells; administered when activation-induced cell death of CAR T cells has peaked (e.g. 2-7 days after CAR T cells), Example 9",deleterious effects on CAR T cells not observed
same,deleterious effects on the CAR T cells,CD3+CAR+ T cells; therapeutic dose administered 48 or 72 hours after initiation of co-culture,without deleterious effects on the CAR T cells being observed
same,CAR-T cell numbers and activity,CD3+CAR+ T cells; therapeutic dose given concurrently or at 24 hours after initiation of co-culture,reduced CAR-T cell numbers and activity
